Reference: patent US20220162167A1, “SUBSTITUTED BICYCLIC AND TETRACYCLIC QUINONES AND USE THEREOF AS ANTI-CANCER AGENTS” (THE REGENTS OF THE UNIVERSITY OF MICHIGAN, priority 2019, published 2022)

Tests used:
Type in all cases: cell-based
K-562 = test: NCI60 growth inhibition, K-562; settings: Leukemia
Description: (§1) Representative compounds were tested in 60 cell lines (NCI60) at the National Cancer Institute, Developmental Therapeutics Program.
(§2) Representative compounds were tested in a panel of 60 cancer cells (NCI 60) at the National Cancer Institute. Growth inhibition are shown in table 2, table 3, table 4, table 5, and FIG. 1, FIG. 2, FIG. 3, FIG. 4, FIG. 5.

HT29 = test: NCI60 growth inhibition, HT29; settings: Colon Cancer
Description: as §1, §2

ACHN = test: NCI60 growth inhibition, ACHN; settings: Renal Cancer
Description: as §1, §2

HCT-15 = test: NCI60 growth inhibition, HCT-15; settings: Colon Cancer; note: test concentration or dose not given here
Description: as §1, §2

HCT-116 = test: NCI60 growth inhibition, HCT-116; settings: Colon Cancer
Description: as §1, §2

A498 = test: NCI60 growth inhibition, A498; settings: Renal Cancer; note: test concentration or dose not given here
Description: as §1, §2

UACC-62 = test: NCI60 growth inhibition, UACC-62; settings: Melanoma; note: test concentration or dose not given here
Description: as §1, §2

DU-145 = test: NCI60 growth inhibition, DU-145; settings: Prostate Cancer
Description: as §1, §2

HS 578T = test: NCI60 growth inhibition, HS 578T; settings: Breast Cancer
Description: as §1, §2

IGROV1 = test: NCI60 growth inhibition, IGROV1; settings: Ovarian Cancer
Description: as §1, §2

SW-620 = test: NCI60 growth inhibition, SW-620; settings: Colon Cancer; note: test concentration or dose not given here
Description: as §1, §2

NCI-H522 = test: NCI60 growth inhibition, NCI-H522; settings: Non-Small Cell Lung Cancer
Description: as §1, §2

KM12 = test: NCI60 growth inhibition, KM12; settings: Colon Cancer; note: test concentration or dose not given here
Description: as §1, §2

MDA-MB-468 = test: NCI60 growth inhibition, MDA-MB-468; settings: Breast Cancer; note: test concentration or dose not given here
Description: as §1, §2

SN12C = test: NCI60 growth inhibition, SN12C; settings: Renal Cancer
Description: as §1, §2

COLO 205 = test: NCI60 growth inhibition, COLO 205; settings: Colon Cancer
Description: as §1, §2

SF-295 = test: NCI60 growth inhibition, SF-295; settings: CNS Cancer; note: test concentration or dose not given here
Description: as §1, §2

HOP-62 = test: NCI60 growth inhibition, HOP-62; settings: Non-Small Cell Lung Cancer; note: test concentration or dose not given here
Description: as §1, §2

NCI-H460 = test: NCI60 growth inhibition, NCI-H460; settings: Non-Small Cell Lung Cancer
Description: as §1, §2

MDA-MB-435 = test: NCI60 growth inhibition, MDA-MB-435; settings: Melanoma
Description: as §1, §2

HOP-92 = test: NCI60 growth inhibition, HOP-92; settings: Non-Small Cell Lung Cancer
Description: as §1, §2

NCI-H23 = test: NCI60 growth inhibition, NCI-H23; settings: Non-Small Cell Lung Cancer
Description: as §1, §2

MALME-3M = test: NCI60 growth inhibition, MALME-3M; settings: Melanoma
Description: as §1, §2

NCI/ADR-RES = test: NCI60 growth inhibition, NCI/ADR-RES; settings: Ovarian Cancer
Description: as §1, §2

MCF7 = test: NCI60 growth inhibition, MCF7; settings: Breast Cancer
Description: as §1, §2

786-0 = test: NCI60 growth inhibition, 786-0; settings: Renal Cancer
Description: as §1, §2

LOX IMVI = test: NCI60 growth inhibition, LOX IMVI; settings: Melanoma
Description: as §1, §2

MOLT-4 = test: NCI60 growth inhibition, MOLT-4; settings: Leukemia
Description: as §1, §2

OVCAR-5 = test: NCI60 growth inhibition, OVCAR-5; settings: Ovarian Cancer
Description: as §1, §2

RPMI-8226 = test: NCI60 growth inhibition, RPMI-8226; settings: Leukemia
Description: as §1, §2

OVCAR-4 = test: NCI60 growth inhibition, OVCAR-4; settings: Ovarian Cancer; note: test concentration or dose not given here
Description: as §1, §2

SF-268 = test: NCI60 growth inhibition, SF-268; settings: CNS Cancer; note: test concentration or dose not given here
Description: as §1, §2

BT-549 = test: NCI60 growth inhibition, BT-549; settings: Breast Cancer
Description: as §1, §2

M14 = test: NCI60 growth inhibition, M14; settings: Melanoma
Description: as §1, §2

NCI-H226 = test: NCI60 growth inhibition, NCI-H226; settings: Non-Small Cell Lung Cancer; note: test concentration or dose not given here
Description: as §1, §2

MDA-MB-231/ATCC = test: NCI60 growth inhibition, MDA-MB-231/ATCC; settings: Breast Cancer
Description: as §1, §2

SK-MEL-5 = test: NCI60 growth inhibition, SK-MEL-5; settings: Melanoma
Description: as §1, §2

A549/ATCC = test: NCI60 growth inhibition, A549/ATCC; settings: Non-Small Cell Lung Cancer
Description: as §1, §2

SK-MEL-28 = test: NCI60 growth inhibition, SK-MEL-28; settings: Melanoma
Description: as §1, §2

HL-60(TB) = test: NCI60 growth inhibition, HL-60(TB); settings: Leukemia
Description: as §1, §2

SF-539 = test: NCI60 growth inhibition, SF-539; settings: CNS Cancer
Description: as §1, §2

OVCAR-3 = test: NCI60 growth inhibition, OVCAR-3; settings: Ovarian Cancer
Description: as §1, §2

TK-10 = test: NCI60 growth inhibition, TK-10; settings: Renal Cancer
Description: as §1, §2

SR = test: NCI60 growth inhibition, SR; settings: Leukemia
Description: as §1, §2

U251 = test: NCI60 growth inhibition, U251; settings: CNS Cancer
Description: as §1, §2

SK-OV-3 = test: NCI60 growth inhibition, SK-OV-3; settings: Ovarian Cancer
Description: as §1, §2

CCRF-CEM = test: NCI60 growth inhibition, CCRF-CEM; settings: Leukemia
Description: as §1, §2

HCC-2998 = test: NCI60 growth inhibition, HCC-2998; settings: Colon Cancer
Description: as §1, §2

SK-MEL-2 = test: NCI60 growth inhibition, SK-MEL-2; settings: Melanoma; note: test concentration or dose not given here
Description: as §1, §2

CAKI-1 = test: NCI60 growth inhibition, CAKI-1; settings: Renal Cancer; note: test concentration or dose not given here
Description: as §1, §2

SNB-19 = test: NCI60 growth inhibition, SNB-19; settings: CNS Cancer; note: test concentration or dose not given here
Description: as §1, §2

NCI-H322M = test: NCI60 growth inhibition, NCI-H322M; settings: Non-Small Cell Lung Cancer
Description: as §1, §2

PC-3 = test: NCI60 growth inhibition, PC-3; settings: Prostate Cancer
Description: as §1, §2

SNB-75 = test: NCI60 growth inhibition, SNB-75; settings: CNS Cancer; note: test concentration or dose not given here
Description: as §1, §2

EKVX = test: NCI60 growth inhibition, EKVX; settings: Non-Small Cell Lung Cancer
Description: as §1, §2

T-47D = test: NCI60 growth inhibition, T-47D; settings: Breast Cancer
Description: as §1, §2

UACC-257 = test: NCI60 growth inhibition, UACC-257; settings: Melanoma; note: test concentration or dose not given here
Description: as §1, §2

UO-31 = test: NCI60 growth inhibition, UO-31; settings: Renal Cancer
Description: as §1, §2

O=C1c2cccnc2C(=O)c2nc3cc(N4CCN(C5CC5)CC4)ccc3nc21 [Compound 49, 9-(4-cyclopropylpiperazin-1-yl)pyrido[2,3-b]phenazine-5,12-dione]
Growth inhibition (% control) GIPRCNT (K-562): 0.8659 % control | Growth inhibition (% control) GIPRCNT (HT29): −21.31 % control | Growth inhibition (% control) GIPRCNT (ACHN): −35.0589 % control | Growth inhibition (% control) GIPRCNT (HCT-15): −58.81 % control | Growth inhibition (% control) GIPRCNT (HCT-116): 0.8509 % control | Growth inhibition (% control) GIPRCNT (A498): −88.1317 % control | Growth inhibition (% control) GIPRCNT (UACC-62): −98.5184 % control | Growth inhibition (% control) GIPRCNT (DU-145): −75.9298 % control | Growth inhibition (% control) GIPRCNT (HS 578T): −36.5499 % control | Growth inhibition (% control) GIPRCNT (IGROV1): −13.7639 % control | Growth inhibition (% control) GIPRCNT (SW-620): −37.75 % control | Growth inhibition (% control) GIPRCNT (NCI-H522): −50.54 % control | Growth inhibition (% control) GIPRCNT (KM12): 9.272 % control | Growth inhibition (% control) GIPRCNT (MDA-MB-468): −21.9933 % control | Growth inhibition (% control) GIPRCNT (SN12C): −94.7287 % control | Growth inhibition (% control) GIPRCNT (COLO 205): −68.34 % control | Growth inhibition (% control) GIPRCNT (SF-295): −88.89 % control | Growth inhibition (% control) GIPRCNT (HOP-62): −56.64 % control | Growth inhibition (% control) GIPRCNT (NCI-H460): −54.12 % control | Growth inhibition (% control) GIPRCNT (MDA-MB-435): −87.4148 % control | Growth inhibition (% control) GIPRCNT (HOP-92): 62.46 % control | Growth inhibition (% control) GIPRCNT (NCI-H23): −56.52 % control | Growth inhibition (% control) GIPRCNT (MALME-3M): −100 % control | Growth inhibition (% control) GIPRCNT (NCI/ADR-RES): 20.15 % control | Growth inhibition (% control) GIPRCNT (MCF7): −56.1231 % control | Growth inhibition (% control) GIPRCNT (786-0): 28.12 % control | Growth inhibition (% control) GIPRCNT (LOX IMVI): −46.5487 % control | Growth inhibition (% control) GIPRCNT (MOLT-4): 26.2 % control | Growth inhibition (% control) GIPRCNT (OVCAR-5): −82.2933 % control | Growth inhibition (% control) GIPRCNT (RPMI-8226): 25.33 % control | Growth inhibition (% control) GIPRCNT (OVCAR-4): −87.768 % control | Growth inhibition (% control) GIPRCNT (SF-268): 12.46 % control | Growth inhibition (% control) GIPRCNT (BT-549): −93.6913 % control | Growth inhibition (% control) GIPRCNT (M14): −91.1652 % control | Growth inhibition (% control) GIPRCNT (NCI-H226): −49.1 % control | Growth inhibition (% control) GIPRCNT (MDA-MB-231/ATCC): 15.11 % control | Growth inhibition (% control) GIPRCNT (SK-MEL-5): −98.1218 % control | Growth inhibition (% control) GIPRCNT (A549/ATCC): −53.27 % control | Growth inhibition (% control) GIPRCNT (SK-MEL-28): −76.8851 % control | Growth inhibition (% control) GIPRCNT (HL-60(TB)): −43.09 % control | Growth inhibition (% control) GIPRCNT (SF-539): −99.37 % control | Growth inhibition (% control) GIPRCNT (OVCAR-3): −1.5625 % control | Growth inhibition (% control) GIPRCNT (TK-10): 0.1224 % control | Growth inhibition (% control) GIPRCNT (SR): −10.03 % control | Growth inhibition (% control) GIPRCNT (U251): −32.64 % control | Growth inhibition (% control) GIPRCNT (SK-OV-3): −78.6244 % control | Growth inhibition (% control) GIPRCNT (CCRF-CEM): 26.17 % control | Growth inhibition (% control) GIPRCNT (HCC-2998): −80.83 % control | Growth inhibition (% control) GIPRCNT (SK-MEL-2): −16.262 % control | Growth inhibition (% control) GIPRCNT (CAKI-1): −5.268 % control | Growth inhibition (% control) GIPRCNT (SNB-19): −81.52 % control | Growth inhibition (% control) GIPRCNT (NCI-H322M): −96.67 % control | Growth inhibition (% control) GIPRCNT (PC-3): 11.58 % control | Growth inhibition (% control) GIPRCNT (SNB-75): −64.69 % control | Growth inhibition (% control) GIPRCNT (EKVX): 27.37 % control | Growth inhibition (% control) GIPRCNT (T-47D): 22.46 % control | Growth inhibition (% control) GIPRCNT (UACC-257): −84.4508 % control | Growth inhibition (% control) GIPRCNT (UO-31): −99.9594 % control
